# Values of other authors, collected in patent publication US20140303128A1, “TRANSMUCOSAL HORMONE DELIVERY SYSTEM” (priority 2013, published 2014).
# Key:
# [1] = pH 6.8
# [2] = smoking a cigarette (WO 03/055486 A1)
smiles,measurement,setting,value
CN1CCCC1c1cccnc1 (centres unmarked) [nicotine],nicotine in the free base form,[1],about 10%
same,time to peak of plasma nicotine levels,[2],about 10 minutes
